Results published in patent US20240207414A1, “DISULFIDE-BASED PRODRUG COMPOUND” (Ludwig-Maximilians-Universitat Munchen, priority 2021, published 2024).

Key:
[1] = Chemical reductant assay: GSH challenge (cell-free); type: physicochemical; settings: aq. TE buffer pH 7.4, 37° C., 6 h, GSH 0.01-10 mM
From the text: (§1) This assay (see FIG. 1) examined the stability of disulfide-based reduction-triggered compounds of the invention when exposed to monothiol reductants, primarily the major physiological cellular monothiol GSH, and dithiol reductants like the disulfide reductant dithiothreitol (DTT), as evaluated in a cell-free assay, to determine whether these compounds can be useful for selective release.
(§2) Assay Conditions: A black 96-well plate with black bottom was charged with solutions of fluorophore-releasing reduction-triggered probes that are compounds of the invention (P1, P2, P3, P4 and P5) or that are not compounds of the invention and reveal the performance of prior art systems (X19) (80 μL; 25 μM in aq. TE buffer (pH 7.4) and 1.25% vol DMSO). Solutions of challenge species chosen from the monothiol glutathione (GSH, 0.1-50 mM) and the dithiol reductant dithiothreitol (DTT, 0.1-50 mM) or phosphine reductant tris-(2-carboxyethyl) phosphine (TCEP); (20 μL; 1 mM in aq. TE buffer (pH 7.4) were added and the reaction mixtures were incubated at 37° C. for 6 h while measuring fluorescence intensity over time [F(t)] using a BMG Labtech FLUOstar Omega platereader (λexc=355 nm, Δem=530 nm for PQ-OH-releasing probes X19, P1 and P2; Δexc=485 nm, Δem=530 nm for MF-OH-releasing probes P3 and P4.
(§3) Data Representation: F^max is the maximum possible fluorescence increase corresponding to complete reduction-triggered cargo release, i.e. the fluorescence intensity increase from time zero to signal plateau under TCEP incubation PQ-OH-releasing probes. F(t)/F^max(t) thus gives the timecourse measurements of fluorescence intensity, as a fraction of the maximum possible fluorescence signal. F^sat is the endpoint fluorescence intensity increase for each condition, ie. F^sat=(F(6 h)). F^sat/F^max thus gives the assay endpoint fluorescence intensity increase, as a fraction of the maximum possible fluorescence signal. In the GSH timecourse measurements shown in FIG. 1, all datasets annotated with concentrations only (0.01-10 mM) refer to GSH challenges, while datasets for TCEP positive control (100 μM) and no-reductant control (blank) are shown for comparison. The dose-response plots show F^sat/F^max for the different ratios between probe and GSH or probe and DTT concentrations, with a logarithmic horizontal scale.

[2] = Chemical reductant assay: DTT challenge (cell-free); type: physicochemical; settings: aq. TE buffer pH 7.4, 37° C., 6 h
From the text: as §1, §2, §3

thioredoxin 2 (Trx2) = target: T1, thioredoxin 2 (Trx2) (Homo sapiens, UniProt Q99757); assay: Enzymatic activation assay: NADPH/TrxR/Trx2 system; type: biochemical; settings: NADPH/TrxR plus Trx2, 37° C., 6 h
T1 sequence (Q99757 60-166): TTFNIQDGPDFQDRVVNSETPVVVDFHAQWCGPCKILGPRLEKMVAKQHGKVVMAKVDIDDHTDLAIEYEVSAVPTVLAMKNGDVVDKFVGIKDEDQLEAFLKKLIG
From the text: (§4) This assay (see FIG. 2) examined the resistance of disulfide-based reduction-triggered compounds to the major cellular enzymatic systems that maintain redox homeostasis and are capable of reducing disulfides, evaluated in a cell-free assay, to see if these compounds can be useful for selective enzyme-triggered release.
(§5) Assay conditions: A black 96-well plate with black bottom was charged with solutions of fluorophore-releasing reduction-triggered probes that are compounds of the invention (P1, P2) or that are not compounds of the invention and reveal the performance of prior art systems (X19) (50 μL; 40 μM in aq. TE buffer (pH 7.4) and 4 μL DMSO). […]
(§6) Data Representation: (F(t)-F^NADPH(t)) is the fluorescence intensity of the test solution at time t, from which is subtracted a background fluorescence level also at time t from a solution with NADPH (which itself is fluorescent, and is present in 10-fold higher concentration than the probe) and with the same protein mixture but without the probe. F^max(t) is the maximum possible fluorescence intensity value at time t, determined by incubation with TCEP (100 μM)) similarly as for the chemical reductant assay. (F(t)−F^NADPH(t))/F^max(t) thus gives the timecourse of fluorescence signal, as a fraction of the maximum possible fluorescence signal. […]

[3] = target: T2, GR/GSH/Grx (glutaredoxin 2, Grx2) (Homo sapiens, UniProt Q9NS18); assay: Enzymatic activation assay: GR/GSH/Grx2; type: biochemical; settings: full mixture NADPH/GR/GSH/Grx2
T2 sequence (Q9NS18 20-164): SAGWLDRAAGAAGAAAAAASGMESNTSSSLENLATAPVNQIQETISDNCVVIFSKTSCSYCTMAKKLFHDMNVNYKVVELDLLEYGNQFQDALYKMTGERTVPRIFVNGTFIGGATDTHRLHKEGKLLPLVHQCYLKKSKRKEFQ
From the text: as §4, §5, §6

[4] = target: T3, thioredoxin reductase 1 (TrxR1) (Homo sapiens, UniProt Q16881); assay: Enzymatic activation assay: NADPH/TrxR1 without Trx; type: biochemical; settings: NADPH/TrxR1, no Trx added, 37° C., 6 h
T3 sequence (Q16881 1-499 isoform Q16881-5): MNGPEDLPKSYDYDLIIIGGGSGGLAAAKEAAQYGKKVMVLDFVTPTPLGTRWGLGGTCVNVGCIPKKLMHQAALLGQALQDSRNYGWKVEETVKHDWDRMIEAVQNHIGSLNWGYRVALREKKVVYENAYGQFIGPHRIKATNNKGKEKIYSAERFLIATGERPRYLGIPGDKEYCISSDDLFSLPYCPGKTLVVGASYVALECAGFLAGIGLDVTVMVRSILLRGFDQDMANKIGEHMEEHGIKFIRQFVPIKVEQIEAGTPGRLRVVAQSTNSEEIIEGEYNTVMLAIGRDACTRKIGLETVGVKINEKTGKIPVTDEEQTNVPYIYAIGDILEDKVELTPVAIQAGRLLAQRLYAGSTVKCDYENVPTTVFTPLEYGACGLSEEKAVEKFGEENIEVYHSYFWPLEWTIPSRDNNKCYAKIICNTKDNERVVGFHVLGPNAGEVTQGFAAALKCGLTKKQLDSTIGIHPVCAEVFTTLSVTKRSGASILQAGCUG
From the text: as §4
Assay conditions: A black 96-well plate with black bottom was charged with solutions of fluorophore-releasing reduction-triggered probes that are compounds of the invention (P1, P2) or that are not compounds of the invention and reveal the performance of prior art systems (X19) (50 μL; 40 μM in aq. TE buffer (pH 7.4) and 4 μL DMSO). Separately, master mixes (30 μL in aq. TE buffer (pH 7.4)) containing mixtures of the proteins human recombinant thioredoxin 1 (Trx1, 0.166-16.66 μM) or thioredoxin 2 (Trx2, 3.3 μM), or human recombinant glutaredoxin 1 (“Grx1”, 3.3 μM) or glutaredoxin 2 (Grx2, 3.3 μM) and/or oxidoreductases human recombinant thioredoxin reductase 1 (TrxR1, 0.07 μM), the thioredoxin reductase Secys498Cys mutant (TrxR1-U498C, 0.07 μM), thioredoxin reductase 2 (TrxR2, 0.07 μM) or human recombinant glutathione reductase (GR, 0.07 μM), and/or GSH (3.3 μM) were prepared. Note that TrxR1 (U498C) has decreased reducing power compared to TrxR1 due to the mutation of the key vicinal selenothiol/thiol into a vicinal dithiol, but it still reduces Trx1. […]
as §6

Row | Molecule | cargo release (fluorescence) when challenged with monothiol reductant GSH [1] | activation / cargo release by dithiol reductant DTT [2] | cargo release / processing by TrxR plus Trx2 (thioredoxin 2 (Trx2)) | cargo release / processing by GR/GSH/Grx2 [3] | cargo release / processing by TrxR1 [4]
1 | O=C(Oc1ccc(Cl)cc1-c1nc2ccc(Cl)cc2c(=O)[nH]1)N1CCC[C@@H]2CSSC[C@@H]21 (racemic) [Compound P2, 4-chloro-2-(6-chloro-4-oxo-3,4-dihydroquinazolin-2-yl)phenyl-(cis)-hexahydro-[1,2]dithiino[4,5-b]pyridine-1(2H)-carboxylate] | do not release cargo | efficiently activated by dithiol-type reductants | processed when additional high levels of Trx1 and Trx2 are added | only processed by high levels of Grx1 and Grx2 | not processed
2 | O=C(Oc1ccc(Cl)cc1-c1nc2ccc(Cl)cc2c(=O)[nH]1)N1CCC[C@@H]2CSSC[C@H]21 (racemic) [Compound P1, 4-chloro-2-(6-chloro-4-oxo-3,4-dihydroquinazolin-2-yl)phenyl-(trans)-hexahydro-[1,2]dithiino[4,5-b]pyridine-1(2H)-carboxylate] | do not release cargo | efficiently activated by dithiol-type reductants | processed when additional high levels of Trx1 and Trx2 are added | only processed by high levels of Grx1 and Grx2 | not processed
3 | 4-chloro-2-(6-chloro-4-oxo-3,4-dihydroquinazolin-2-yl)phenyl methyl(2-((2-(methyl amino)ethyl)disulfaneyl)ethyl)carbamate [Compound X19, reference compound] | already unstable to the monothiol GSH | – | – | – | rapidly degraded
